# From publication PMC8097893, “Investigating the effects of two novel 4-MMPB analogs as potent lipoxygenase inhibitors for prostate cancer treatment” (Journal of Biological Research, 2021)
# Where two headings read alike, the source gives them in different places.
# Assays:
# PC-3 cells [1] = experiment: Flow cytometric analysis of cell death (Annexin V-FITC/PI) in PC-3 cells; format: cell-based, human; settings: for percentage of early and late apoptotic/ferroptotic cells (Q3+Q2): PC-3, treated with IC50 value of the compound, 24 h, control 0.133%; for change of Q2 (Annexin V positive/PI positive) population after co-treatment with deferoxamine: PC-3, compared with compound only
# Protocol: To determine the mechanism of cell death induced by 4-MMPB analogs, flow cytometry was employed using the Annexin V-FITC kit with PI (BioLegend, San Diego, USA) according to the manufacturer’s instructions. We performed co-treatment experiments with the compounds and a ferroptosis inhibitor (IC50 values of 4-PMPB + , 4-EMPB + , and 4-MMPB + deferoxamine (80 µM)) on PC-3 cells, to distinguish between ferroptosis and apoptosis mechanisms. […] Then the cells were collected by trypsinization (0.25% trypsin-1 mM EDTA), washed twice with PBS, followed by centrifugation, and resuspended in a binding buffer. Samples were stained with Annexin V-FITC/ PI followed by 15 min incubation at room temperature. Finally, cells were subjected to flow cytometry (BD Accuri C6, San Jose, USA) and the data were analyzed by FlowJo 7.6.1 software (Ashland, USA). Moreover, PC-3 cells treated with 0.3 N HCl were used as a control to eliminate the effects of solvent.
# PC-3 cells [2] = experiment: MTT cytotoxicity assay on PC-3 cells; format: cell-based, human; settings: PC-3, MTT
# Protocol: (§1) Two mg of each compound was dissolved in 100 μl hydrochloric acid (HCl 0.3 N) to make a primary stock solution. Different concentrations (1.56–50 μg ml^−1) were then prepared by serial dilution from the primary stock solution and further diluted in the culture medium.
# (§2) PC-3 cells were obtained from Pasteur Institute (Tehran, Iran) and routinely cultured in RPMI 1640 supplemented with 10% FBS. In order to investigate the toxicity of the compounds on normal cells, in vitro experiments were also performed on HDF cells. These cells were kindly provided by Academic Center for Education, Culture and Research (ACECR, Mashhad, Iran) and grown in DMEM supplemented with 10% FBS. Both cell lines were kept at 37 °C containing 5% CO2 in a humidified incubator.
# (§3) The MTT reduction assay is a standard quantitative method to evaluate cytotoxicity. This assay measures cellular dehydrogenases, and is considered as an easy, safe and highly reproducible method. Viable cells reduce yellow tetrazolium salt to purple formazan crystals and thus the color change serves as a marker reflecting cell viability.
# (§4) PC-3 and HDF cells were seeded in 96-well plates (NEST, China) at a density of 6000 and 8000 cells per well, respectively and incubated at 37 °C with 5% CO2. […] After 24, 48 and 72 h of treatments, 20 μl MTT solution (5 mg ml^−1 in PBS; phosphate buffered saline) was added to each well, and cells were incubated in the dark for 3–4 h. The media were then removed and purple crystals were dissolved in 160 μl DMSO. The absorbance in each well was measured at 540 nm as reference wavelength in an enzyme-linked immunosorbent assay (ELISA) reader (Awareness Technology, USA) and relative optical density (OD) values were recorded. The percentage of viable cells was calculated using the following equation [49]: Cell viability%=100×ODmeanof treated cells-ODmeanblank/ODmeanof negative control cellsHCl0.3 N-ODmeanblank.
# PC-3 tumors = experiment: Anti-tumor effect in PC-3 xenograft tumor model in immunocompromised C57BL/6 mice
# [3] = In vivo side effects evaluation (body weight, serum biochemistry, H&E histology); design: species or system C57BL/6 mice; settings: for histological analysis of major organs (liver, kidney, spleen): H&E, day 15 after treatments; for serum AST and ALT levels: 50 mg kg^-1, compared with immunosuppressed control group
# HDF cells = experiment: MTT cytotoxicity assay on HDF normal cells; format: cell-based, human
# Protocol: as §1, §2, §3, §4
# soybean LOX-1 [4] = target: T1, soybean LOX-1 (Glycine max, UniProt P08170); experiment: Soybean LOX-1 enzyme inhibitory assessment (DMAB-MBTH colour assay, linoleic acid substrate); format: biochemical; settings: from sigmoidal dose-response curves, n = 3; read-out: IC50, soybean LOX-1 inhibition
# T1 construct: purchased Sigma-Aldrich
# T1 sequence (P08170 1-839): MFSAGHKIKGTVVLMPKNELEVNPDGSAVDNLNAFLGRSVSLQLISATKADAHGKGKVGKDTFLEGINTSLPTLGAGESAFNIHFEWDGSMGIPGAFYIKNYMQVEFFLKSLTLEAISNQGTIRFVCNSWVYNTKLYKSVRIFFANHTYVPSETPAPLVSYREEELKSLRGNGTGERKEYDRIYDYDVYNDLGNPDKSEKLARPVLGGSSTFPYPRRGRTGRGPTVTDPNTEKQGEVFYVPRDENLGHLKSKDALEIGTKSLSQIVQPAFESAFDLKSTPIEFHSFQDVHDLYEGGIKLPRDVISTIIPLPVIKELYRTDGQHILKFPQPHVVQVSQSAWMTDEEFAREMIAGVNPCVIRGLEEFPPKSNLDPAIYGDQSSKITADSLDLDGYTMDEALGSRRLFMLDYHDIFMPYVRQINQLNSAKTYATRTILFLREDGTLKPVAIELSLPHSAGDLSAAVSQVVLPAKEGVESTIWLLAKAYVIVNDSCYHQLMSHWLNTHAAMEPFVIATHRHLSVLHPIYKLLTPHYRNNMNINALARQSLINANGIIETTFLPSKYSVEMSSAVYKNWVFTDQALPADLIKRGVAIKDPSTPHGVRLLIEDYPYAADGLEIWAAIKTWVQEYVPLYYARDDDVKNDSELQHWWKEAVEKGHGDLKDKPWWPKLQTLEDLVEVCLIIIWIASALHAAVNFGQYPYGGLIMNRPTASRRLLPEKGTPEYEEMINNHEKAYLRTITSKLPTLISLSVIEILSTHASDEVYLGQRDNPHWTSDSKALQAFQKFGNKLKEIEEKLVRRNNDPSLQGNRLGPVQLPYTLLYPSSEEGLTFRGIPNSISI
# Protocol: Linoleic acid and two assay solutions (A and B) were prepared in advance. Solution A was 50 mM 3-(dimethylamino)benzoic acid (DMAB) in l00 mM phosphate buffer (pH 7.0). Solution B was a mixture of l0 mM 3-methyl-2-benzothiazolinonehydrazone hydrochloride (MBTH; 3 ml), and hemoglobin (5 mg ml^−1, 3 ml) in 50 mM phosphate buffer at pH 5.0 (25 ml). A linoleic acid solution was prepared by mixing 5.6 mg linoleic acid with 0.5 ml methanol and then diluted with 100 mM KOH to a final volume of 5 ml (4 mM). In the assay, a solution of inhibitors in dimethyl sulfoxide (DMSO) (12.5 μl), soybean LOX-1 (4000 units ml^−1 in 50 mM phosphate buffer pH 7.0; 25 μl), and phosphate buffer, pH 7.0 (50 mM; 435 μl) were mixed in 48-well plates, and pre incubation was carried out for 10 min at 30 °C. A control test was performed with the same volume of DMSO. After the pre incubation, linoleic acid solution (25 μl) was added to start the peroxidation reaction at 30 °C, and 10 min later, solution A (135 μl) and then solution B (65 μl) were added to start the color formation. After 3 min, 100 μl of a 2% sodium dodecyl sulphate (SDS) solution was added to terminate the reaction. The absorbance at 598 nm was compared with the control. These experiments were performed in triplicate and the data were analyzed using GraphPad Prism 6.0 (San Diego, USA).
# Lipoxygenase inhibitory activity of 4-MMPB and its analogs was assessed on soybean LOX-1 and the inhibitory potencies (IC50 values) of the mentioned compounds were calculated from their sigmoidal dose–response curves (Fig. 2).
# soybean LOX-1 [5] = target: T1, soybean LOX-1; design: method as in doi:10.1007/s00044-013-0506-7; settings: read-out: IC50 against soybean LOX-1; cited from earlier work
# 15-LOX-1 = settings: read-out: IC50 against 15-LOX-1; cited from earlier work
# 15-lipoxygenase = target: 15-lipoxygenase; design: method as in PMID 17210254; settings: read-out: IC50, 15-lipoxygenase inhibition; cited from earlier work
# [6] = 24 h, read-out: IC50 (µM) ± SD (PC-3) 24 h
# [7] = 48 h, read-out: IC50 (µM) ± SD (PC-3) 48 h
# [8] = 72 h, read-out: IC50 (µM) ± SD (PC-3) 72 h
# [9] = 24 h, read-out: IC50 (µM) ± SD (HDF) 24 h
# [10] = 48 h, read-out: IC50 (µM) ± SD (HDF) 48 h
# [11] = 72 h, read-out: IC50 (µM) ± SD (HDF) 72 h
# [12] = high dose 50 mg kg^-1, 15 days, vs PBS and 0.3 N HCl controls
# [13] = 10 and 50 mg kg^-1, 15 days follow up
Structure (SMILES),IC50 (soybean LOX-1 [4]) [µM],percentage of early and late apoptotic/ferroptotic cells (Q3+Q2) (PC-3 cells [1]) [%],IC50 (PC-3 cells [2]; [6]) [µM],IC50 (PC-3 cells [2]; [7]) [µM],IC50 (PC-3 cells [2]; [8]) [µM],"histological analysis of major organs (liver, kidney, spleen) [3]",IC50 (HDF cells; [9]) [µM],IC50 (HDF cells; [10]) [µM],IC50 (HDF cells; [11]) [µM],change of Q2 (Annexin V positive/PI positive) population after co-treatment with deferoxamine (PC-3 cells [1]),tumor growth (PC-3 tumors; [12]),serum AST and ALT levels [3],"body weight [3, 13]","cytotoxicity on normal (HDF) cells, in words (HDF cells)",further results
"N.N.[Cl][Pt][Cl] [Cisplatin, cisplatin, reference compound]",–,67.8,62.3 ± 1.74,51.5 ± 1.43,41.6 ± 1.11,mild and local accumulation of inflammatory cells,153 ± 2.89,119 ± 2.56,71.1 ± 3.34,–,–,–,–,–,"tumor growth (PC-3 tumors; cisplatin 2 mg kg^-1, 15 days, vs controls and lower-dose groups): significant decrease; serum liver enzymes ([3]; cisplatin 2 mg kg^-1, compared to control group, p < 0.0001): significantly increased; body weight ([3]; cisplatin 2 mg kg^-1, day 15, p < 0.01 vs other experimental groups): lowest body weights"
CC(C)=CCCC(C)=CCCC(C)=CCOc1cccc2oc(=O)ccc12 [5-farnesyloxycoumarin],–,–,–,–,–,–,–,–,–,–,–,–,–,–,IC50 (15-LOX-1): 8.32 µM
"Cc1nc(N2CCN(C)CC2)nc2c1Sc1ccccc1N2 [4-MMPB, 4-Methyl-2-(4-methylpiperazinyl)pyrimido[4,5-b]benzothiazine]",17.1,41.5,101 ± 2.41,55.6 ± 1.98,40.8 ± 1.79,no obvious tissue damages,331 ± 3.33,284 ± 2.98,186 ± 2.81,markedly decreased,effectively inhibited,significantly elevated,no significant changes,weak cytotoxicity,IC50 (15-lipoxygenase): 18 µM

# Continued, in another order:
IC50 (soybean LOX-1 [4]) [µM],Structure (SMILES),percentage of early and late apoptotic/ferroptotic cells (Q3+Q2) (PC-3 cells [1]) [%],IC50 (PC-3 cells [2]; [6]) [µM],IC50 (PC-3 cells [2]; [7]) [µM],IC50 (PC-3 cells [2]; [8]) [µM],"histological analysis of major organs (liver, kidney, spleen) [3]",IC50 (HDF cells; [9]) [µM],IC50 (HDF cells; [10]) [µM],IC50 (HDF cells; [11]) [µM],change of Q2 (Annexin V positive/PI positive) population after co-treatment with deferoxamine (PC-3 cells [1]),tumor growth (PC-3 tumors; [12]),serum AST and ALT levels [3],"body weight [3, 13]","cytotoxicity on normal (HDF) cells, in words (HDF cells)",further results
8.6,"CCCc1nc(N2CCN(C)CC2)nc2c1Sc1ccccc1N2 [4-PMPB, 4-propyl-2-(4-methylpiperazinyl)pyrimido[4,5-b]benzothiazine]",52.38,122 ± 2.62,88.5 ± 2.31,57.6 ± 2.12,no obvious tissue damages,1641.1 ± 0.075,1443.7 ± 0.055,1028.9 ± 0.139,markedly decreased,effectively inhibited,significantly elevated,no significant changes,no obvious cytotoxicity,IC50 (soybean LOX-1 [5]): 9 µM
14.3,"CCc1nc(N2CCN(C)CC2)nc2c1Nc1ccccc1S2 [4-EMPB, 4-Ethyl-2-(4-methylpiperazinyl)pyrimido[4,5-b]benzothiazine]",60.9,–,–,–,no obvious tissue damages,–,–,–,markedly decreased,effectively inhibited,significantly elevated,no significant changes,weak cytotoxicity,"IC50 (PC-3 cells [2]; Homo sapiens, 24 h, read-out: IC50 (µM) ± SD (PC-3) 24 h): 107 ± 6.17 µM; IC50 (PC-3 cells [2]; Homo sapiens, 48 h, read-out: IC50 (µM) ± SD (PC-3) 48 h): 75 ± 3.39 µM; IC50 (PC-3 cells [2]; Homo sapiens, 72 h, read-out: IC50 (µM) ± SD (PC-3) 72 h): 49 ± 6.76 µM; IC50 (HDF cells; Homo sapiens, 24 h, read-out: IC50 (µM) ± SD (HDF) 24 h): 545.5 ± 1.99 µM; IC50 (HDF cells; Homo sapiens, 48 h, read-out: IC50 (µM) ± SD (HDF) 48 h): 361.7 ± 2.29 µM; IC50 (HDF cells; Homo sapiens, 72 h, read-out: IC50 (µM) ± SD (HDF) 72 h): 258.9 ± 1.86 µM"
